Results from ChEMBL document CHEMBL1201862, “PubChem BioAssay data set” (2004).
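Dose response: 5 concentrations. Exposure: 48 h. Format: 96-well plates. Endpoint: linear interpolation; highest concentration if not reached. GI50 marks 50% less growth.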 The source made the active and inactive calls. Rule as the data show it: active = GI50 up to about 1.1 µM and inactive = higher.

What was measured:
Experiment in all cases: inhibition of tumour cell growth, NCI panel, 48 h
[1] = test system: OVCAR-4
[2] = test system: UO-31
[3] = test system: SK-MEL-5
[4] = test system: DU-145
[5] = test system: MCF7
[6] = test system: MDA-MB-231
[7] = test system: SR
[8] = test system: IGROV-1
[9] = test system: SNB-78
[10] = test system: LOX IMVI
[11] = test system: Malme-3M
[12] = test system: A498
[13] = test system: SNB-19
[14] = test system: MDA-MB-435
[15] = test system: Hs-578T
[16] = test system: CCRF-CEM
[17] = test system: HCT-116
[18] = test system: CAKI-1
[19] = test system: SW-620
[20] = test system: HCC 2998

Measured: GI50

C[S+]([O-])c1cc(=O)c2ccccc2s1 (stereo not given)
inactive: [1] 3.03 µM | [2] 11.9 µM | [3] 10.6 µM | [4] 18.7 µM | [5] 5.42 µM | [6] 12.6 µM | [7] 1.56 µM | [8] 17.5 µM | [9] 7.52 µM | [10] 3.78 µM | [11] 2.3 µM | [12] 11.5 µM | [13] 18.4 µM | [14] 5.14 µM | [15] 25.4 µM | [16] 1.7 µM | [17] 2.55 µM | [18] 3.09 µM | [19] 1.91 µM | [20] 7.64 µM
